The record followed here is patent publication US20230102860A1, “METHOD FOR C[…] FUNGICIDE-RESISTANT SOYBEAN RUST FUNGI” (SUMITOMO CHEMICAL COMPANY, LIMITED, priority 2020, published 2023).

The experiment relates to soybean rust fungus (Phakopsora pachyrhizi) having an amino acid substitution of F129L on mitochondrial cytochrome b protein. Description: Comparative Test Example 1: soybean leaf disk test at 50 ppm or 12.5 ppm, lesion area (Table A, Table B). It is filed as in vivo. Here is the method:
A soybean leaf (cv; Kurosengoku) was punched out to 1 cm diameter to prepare a leaf disk. Each 1 mL of 1.2% agar medium was dispensed in 24 well microplate. A piece of the leaf disk was placed on each well. To a mixture of 0.5 μL of Sorpol (registered trademark) 1200KX, 4.5 μL of DMSO, and 5 μL of xylene was added 20 μL of a DMSO solution containing 10,000 ppm of the test compound. The resulting mixture was diluted with ion exchange water to prepare a spray solution containing a predetermined concentration of the test compound. The spray solution was sprayed in 10 μL per one leaf disk. After 1 day, an aqueous suspension of spores of soybean rust fungus (Phakopsora pachyrhizi) having an amino acid substitution of F129L on mitochondrial cytochrome b protein (1.0×10^5/mL) was inoculated onto the leaf disks. After the inoculation, the microplate was placed in a growth chamber (light on for 6 hours, light off for 18 hours, 23° C. temperature, 60% humidity). After 1 day, the leaf disks were air-dried to disappear water droplets on the surface of the leaf disk, and the microplate was placed again in the growth chamber for 10 to 14 days. Thereafter, a lesion area of soybean rust disease was assessed. […] Here the untreated means that the spray solution containing the test compound was not sprayed onto the leaf disk.
The test was conducted by using as a test compound the present compound 3, 5, 11, 59, 200, 202, 207, 214, 222, 294 or 391, or azoxystrobin, dimoxystrobin or metominostrobin, at the predetermined concentration of 50 ppm or 12.5 ppm according to a method described in the Test Example 1. The results thereof are indicated in [Table A] and [Table B].

On to `CO/C=C(/C(=O)OC)c1ccccc1/C=C/C1CC1(F)F` (stereo not shown), for which the “Lesion Area at each concentration (%)” value reads like this: (12.5 ppm) 0%; (50 ppm) 0%.
On to `CO/C=C(/C(=O)OC)c1ccc(Cl)cc1C#CCC1CCCC1`, for which the “Lesion Area at each concentration (%)” value (12.5 ppm) is given as 0% and the “Lesion Area at each concentration (%)” value (50 ppm) is on record as 0%.
With `CO/C=C(/C(=O)OC)c1ccc(Cl)cc1/C=C/C1CC1(C)C` (stereo not shown), the “Lesion Area at each concentration (%)” value reads like this: (12.5 ppm) 0%; (50 ppm) 0%.
In the case of `CO/C=C(/C(=O)OC)c1ccc(Cl)cc1C#CCC(C)C`, the “Lesion Area at each concentration (%)” value runs as follows: (12.5 ppm) 0%; (50 ppm) 0%.
On to `CNC(=O)/C(=N/OC)c1ccccc1COc1ccn(-c2ccc(Cl)cc2)n1`, for which the “Lesion Area at each concentration (%)” value is listed as 10% (12.5 ppm) and 0% (50 ppm).
Consider `CO/C=C(/C(=O)OC)c1ccccc1COc1ccn(-c2ccc(Cl)cc2)n1`, for which the “Lesion Area at each concentration (%)” value is 10% (12.5 ppm) and 0% (50 ppm).
On to `CO/C=C(/C(=O)OC)c1ccccc1/C=C/C1CC1C` (stereo not shown), for which the “Lesion Area at each concentration (%)” value stood at 0% (12.5 ppm) and 0% (50 ppm).
For `CCCCC#Cc1cc(Cl)ccc1/C(=C\OC)C(=O)OC`, the “Lesion Area at each concentration (%)” value (12.5 ppm) worked out at 0% and the “Lesion Area at each concentration (%)” value (50 ppm) is reported as 0%.
Turning to `CNC(=O)/C(=N/OC)c1ccccc1Oc1ccccc1`, the “Lesion Area at each concentration (%)” value by setting is: (12.5 ppm) 100%; (50 ppm) 100%.
Regarding `CO/C=C(/C(=O)OC)c1ccccc1Oc1cc(Oc2ccccc2C#N)ncn1`, the “Lesion Area at each concentration (%)” value (12.5 ppm) is 100% and the “Lesion Area at each concentration (%)” value (50 ppm) came out at 100%.
In the case of `CNC(=O)/C(=N/OC)c1ccccc1COc1cc(C)ccc1C`, the “Lesion Area at each concentration (%)” value turned out to be 100% (12.5 ppm) and 100% (50 ppm).
For `CO/C=C(/C(=O)OC)c1c(C)cccc1CO/N=C(\C)c1ccc(Cl)cc1`, the “Lesion Area at each concentration (%)” value (12.5 ppm) is given as 0% and the “Lesion Area at each concentration (%)” value (50 ppm) is 0%.
Consider `CO/C=C(/C(=O)OC)c1ccc(OC)cc1C#CCC(C)C`, for which the “Lesion Area at each concentration (%)” value reads like this: (12.5 ppm) 0%; (50 ppm) 0%.
Consider `CCc1ccc(/C(=C\OC)C(=O)OC)c(/C=C/C2CC2)c1`, for which the “Lesion Area at each concentration (%)” value reads like this: (12.5 ppm) 0%; (50 ppm) 0%.
